# Data as given in US11161819B2, “Substituted tetrahydroisoquinoline compounds useful as GPR120 agonists” (Merck Sharp & Dohme Corp., priority 2016, dated 2021).
# Target: T1, human GPR120 (Homo sapiens, UniProt Q5NUL3)
# T1 construct: expressed in transfected cells
# T1 sequence (Q5NUL3 1-361): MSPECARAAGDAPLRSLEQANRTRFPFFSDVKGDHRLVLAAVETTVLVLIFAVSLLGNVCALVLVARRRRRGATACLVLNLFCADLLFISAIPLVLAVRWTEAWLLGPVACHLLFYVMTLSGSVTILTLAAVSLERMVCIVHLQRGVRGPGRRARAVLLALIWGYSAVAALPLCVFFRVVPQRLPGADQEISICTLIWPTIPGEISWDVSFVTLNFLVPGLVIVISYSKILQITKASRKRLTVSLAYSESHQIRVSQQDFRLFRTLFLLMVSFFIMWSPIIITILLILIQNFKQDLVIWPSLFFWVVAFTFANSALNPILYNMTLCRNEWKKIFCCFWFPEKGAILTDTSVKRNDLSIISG
# Assay: Human GPR120 IP1 Assay (inositol phosphate turnover, CisBio IP-One kit)
# Type: cell-based
# Details: IP1 accumulation in CHO-K1 cells stably expressing the short form of human GPR120; 60 min compound incubation; 4-parameter fit; read-out: hGPR120 EC50
# Outline: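 CHO-K1 cells stably expressing short-form human GPR120 were stimulated with compounds for 60 minutes at 37 degrees in stimulation buffer. IP1 accumulation measured by HTRF competitive immunoassay (665/620 nm ratio) against an IP1 standard curve, normalized to a reference compound; EC50 from 4-parameter fit.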
row,SMILES,EC50 [nM]
1,"Cc1ccc(-n2nc(C)c(F)c2N2CCc3cc(C4CC4C(=O)O)ccc3C2)cc1 (stereo not shown) [Example 96, 2-{2-[4-fluoro-3-methyl-1-(4-methylphenyl)-1H-pyrazol-5-yl]-1,2,3,4-tetrahydroisoquinolin-6-yl}cyclopropanecarboxylic acid]",834
2,"COc1cc(O[C@H]2C[C@H](OC)C2)cc(N2CCc3cc([C@H]4C[C@@H]4C(=O)O)ccc3C2)c1C#N [Example 97, (1S,2S)-2-(2-{2-cyano-3-methoxy-5-[(trans-3-methoxycyclobutyl)oxy]phenyl}-1,2,3,4-tetrahydroisoquinolin-6-yl) cyclopropanecarboxylic acid]",1580
3,"CO[C@H]1C[C@H](Oc2cc(F)c(F)c(N3CCc4cc([C@@H]5C[C@H]5C(=O)O)ccc4C3)c2)C1 [Example 99, (1R,2R)-2-(2-{2,3-difluoro-5-[(trans-3-methoxycyclobutyl)oxy]phenyl}-1,2,3,4-tetrahydro-isoquinolin-6-yl)-cyclopropanecarboxylic acid]",127
4,"CO[C@H]1C[C@H](Oc2cc(F)c(F)c(N3CCc4cc([C@H]5C[C@@H]5C(=O)O)ccc4C3)c2)C1 [Example 100, (1S,2S)-2-(2-{2,3-difluoro-5-[(trans-3-methoxycyclobutyl)oxy]phenyl}-1,2,3,4-tetrahydroiso-quinolin-6-yl)-cyclopropanecarboxylic acid]",251
5,"C[C@H]1C[C@H](Oc2cc(F)c(F)c(N3CCc4cc([C@@H]5C[C@H]5C(=O)O)ccc4C3)c2)C1 [Example 101, (1R,2R)-2-(2-{2,3-difluoro-5-[(trans-3-methylcyclobutyl)oxy]phenyl}-1,2,3,4-tetrahydroiso-quinolin-6-yl)-cyclopropane-carboxylic acid]",273
6,"CO[C@H]1C[C@H](Oc2cc(F)c(C#N)c(N3CCc4cc([C@@H]5C[C@H]5C(=O)O)ccc4C3)c2)C1 [Example 103, (1R,2R)-2-(2-{2-cyano-3-fluoro-5-[(trans-3-methoxycyclobutyl)oxy]phenyl}-1,2,3,4-tetrahydroiso-quinolin-6-yl)cyclopropane-carboxylic acid]",3000
7,"O=C(O)C1CC1c1ccc2c(c1)CCN(c1cc(OC(F)(F)F)cc(Cl)c1F)C2 (stereo not shown) [Example 104, 2-{2-[3-chloro-2-fluoro-5-(trifluoro-methoxy)phenyl]-1,2,3,4-tetra-hydroisoquinolin-6-yl}cyclo-propane-carboxylic acid]",4040
8,"O=C(O)C1CC1c1ccc2c(c1)CCN(c1cc(OC(F)(F)F)cc(Cl)c1F)C2 (stereo not shown) [Example 105, 2-{2-[3-chloro-2-fluoro-5-(trifluoro-methoxy)phenyl]-1,2,3,4-tetra-hydroisoquinolin-6-yl}cyclo-propane-carboxylic acid]",6610
9,"CO[C@H]1C[C@H](Oc2cc(F)c(F)c(N3CCc4c(ccc([C@H]5C[C@@H]5C(=O)O)c4F)C3)c2)C1 [Example 106, (1 S,2S)-2-(2-(2,3-difluoro-5-((1 r,3S)-3-methoxycyclobutoxy)phenyl)-5-fluoro-1,2,3,4-tetra-hydroisoquinolin-6-yl)cyclopropanecarboxylic acid]",83
10,"C[C@H]1C[C@H](Oc2cc(F)c(F)c(N3CCc4c(ccc([C@H]5C[C@@H]5C(=O)O)c4F)C3)c2)C1 [Example 108, (1S,2S)-2-(2-(2,3-difluoro-5-((1r,3S)-3-methylcyclobutoxy)phenyl)-5-fluoro-1,2,3,4-tetra-hydroisoquinolin-6-yl)cyclopropanecarboxylic acid]",122
11,"N#Cc1ccc(OC(F)(F)F)cc1N1CCc2c(ccc([C@H]3C[C@@H]3C(=O)O)c2F)C1 [Example 117, (1S,2S)-2-{2-[2-cyano-5-(trifluoromethoxy)phenyl]-5-fluoro-1,2,3,4-tetrahydroisoquinolin-6-yl} cyclopropane-carboxylic acid]",143
12,"O=C(O)[C@H]1C[C@@H]1c1ccc2c(c1F)CCN(c1cc(OC(F)(F)F)ccc1F)C2 [Example 118, (1S,2S)-2-{5-fluoro-2-[2-fluoro-5-(trifluoromethoxy)phenyl]-1,2,3,4-tetrahydroisoquinolin-6-yl} cyclopropane-carboxylic acid]",215
13,"N#Cc1c(F)cc(OC(F)(F)F)cc1N1CCc2c(ccc([C@H]3C[C@@H]3C(=O)O)c2F)C1 [Example 119, (1S,2S)-2-{2-[2-cyano-3-fluoro-5-(trifluoromethoxy)phenyl]-5-fluoro-1,2,3,4-tetrahydroisoquinolin-6-yl}cyclopropane-carboxylic acid]",273
14,"O=C(O)[C@H]1C[C@@H]1c1ccc2c(c1F)CCN(c1cc(OC(F)(F)F)cc(Cl)c1F)C2 [Example 120, (1S,2S)-2-{2-[3-chloro-2-fluoro-5-(trifluoromethoxy)phenyl]-5-fluoro-1,2,3,4-tetrahydroisoquinolin-6-yl}cyclopropane-carboxylic acid]",299
15,"O=C(O)[C@@H]1C[C@H]1c1ccc2c(c1F)CCN(c1cc(OC3CCC3)cc(Cl)c1F)C2 [Example 123, (1R,2R)-2-{2-[3-chloro-5-(cyclobutyloxy)-2-fluorophenyl]-5-fluoro-1,2,3,4-tetrahydroisoquinolin-6-yl}cyclopropane-carboxylic acid]",766
16,"O=C(O)[C@H]1C[C@@H]1c1ccc2c(c1F)CCN(c1cc(OC(F)(F)F)cc(F)c1Cl)C2 [Example 124, (1S,2S)-2-{2-[2-chloro-3-fluoro-5-(trifluoromethoxy)phenyl]-5-fluoro-1,2,3,4-tetrahydro-isoquinolin-6-yl}cyclopropane-carboxylic acid]",824

# Further lines, results first:
row,EC50 [nM],SMILES
1,100,"C[C@H]1C[C@H](Oc2cc(F)c(F)c(N3CCc4cc([C@H]5C[C@@H]5C(=O)O)ccc4C3)c2)C1 [Example 98, (1S,2S)-2-(2-{2,3-difluoro-5-[(trans-3-methylcyclobutyl)oxy]phenyl}-1,2,3,4-tetrahydroiso-quinolin-6-yl)-cyclopropane-carboxylic acid]"
2,118,"O=C(O)C1CC1c1ccc2c(c1)CCN(c1cc(OC(F)(F)F)ccc1F)C2 (stereo not shown) [Example 102, 2-{2-[2-fluoro-5-(trifluoromethoxy)phnyl]-1,2,3,4-tetrahydroisoquinolin-6-yl}cyclopropane-carboxylic acid]"
3,122,"N#Cc1cc(OC(F)(F)F)cc(N2CCc3c(ccc([C@H]4C[C@@H]4C(=O)O)c3F)C2)c1F [Example 107, (1S,2S)-2-(2-(3-cyano-2-fluoro-5-(trifluoromethoxy)phenyl)-5-fluoro-1,2,3,4-tetrahydroisoquinolin-6-yl)cyclopropanecarboxylic acid]"
4,22,"N#Cc1cc(OC(F)(F)F)cc(N2CCc3c(ccc([C@@H]4C[C@H]4C(=O)O)c3F)C2)c1F [Example 109, (1R,2R)-2-{2-[3-cyano-2-fluoro-5-(trifluoromethoxy)phenyl]-5-fluoro-1,2,3,4-tetrahydroisoquinolin-6-yl}cyclopropane-carboxylic acid]"
5,42,"CO[C@H]1C[C@H](Oc2cc(F)c(F)c(N3CCc4c(ccc([C@@H]5C[C@H]5C(=O)O)c4F)C3)c2)C1 [Example 110, (1R,2R)-2-(2-{2,3-difluoro-5-[(trans-3-methoxycyclobutyl)oxy]phenyl}-5-fluoro-1,2,3,4-tetrahydroisoquinolin-6-yl)-cyclopropanecarboxylic acid]"
6,32,"O=C(O)[C@@H]1C[C@H]1c1ccc2c(c1F)CCN(c1cc(OC(F)(F)F)cc(Cl)c1F)C2 [Example 111, (1R,2R)-2-{2-[3-chloro-2-fluoro-5-(trifluoromethoxy)-phenyl]-5-fluoro-1,2,3,4-tetrahydroisoquinolin-6-yl}cyclo-propanecarboxylic acid]"
7,42,"C[C@H]1C[C@H](Oc2cc(F)c(F)c(N3CCc4c(ccc([C@@H]5C[C@H]5C(=O)O)c4F)C3)c2)C1 [Example 112, (1R,2R)-2-(2-{2,3-difluoro-5-[(trans-3-methylcyclobutyl)oxy]phenyl}-5-fluoro-1,2,3,4-tetrahydroisoquinolin-6-yl) cyclopropanecarboxylic acid]"
8,59,O=C(O)[C@@H]1C[C@H]1c1ccc2c(c1F)CCN(c1cc(OC(F)(F)F)ccc1F)C2 [Example 113]
9,61,"O=C(O)[C@@H]1C[C@H]1c1ccc2c(c1)CCN(c1cc(OC3CCC3)cc(Cl)c1F)C2 [Example 114, (1R,2R)-2-{2-[3-chloro-5-(cyclobutyloxy)-2-fluorophenyl]-1,2,3,4-tetrahydroisoquinolin-6-yl} cyclopropanecarboxylic acid]"
10,107,"N#Cc1cc(OC(F)(F)F)cc(N2CCc3c(ccc([C@H]4C[C@@H]4C(=O)O)c3F)C2)c1F [Example 116, (1S,2S)-2-{2-[3-cyano-2-fluoro-5-(trifluoromethoxy)phenyl]-5-fluoro-1,2,3,4-tetrahydroiso-quinolin-6-yl}cyclopropane-carboxylic acid]"
11,73,"O=C(O)[C@@H]1C[C@H]1c1ccc2c(c1F)CCN(c1cc(OC(F)(F)F)cc(F)c1Cl)C2 [Example 121, (1R,2R)-2-{2-[2-chloro-3-fluoro-5-(trifluoromethoxy)phenyl]-5-fluoro-1,2,3,4-tetra-hydroisoquinolin-6-yl}cyclo-propanecarboxylic acid]"
12,121,"C[C@H]1C[C@H](Oc2cc(F)c(F)c(N3CCc4c(ccc([C@H]5C[C@@H]5C(=O)O)c4F)C3)c2)C1 [Example 122, (1S,2S)-2-(2-{2,3-difluoro-5-[(trans-3-methylcyclobutyl)oxy]phenyl}-5-fluoro-1,2,3,4-tetrahydro-isoquinolin-6-yl)cyclopropane-carboxylic acid]"
